Values after ≈ are worked out from the molar mass of the structure shown. Where two headings read alike, the source gives them in different places.
Legend:
[1] = system: Pathogenic micro-organism (S. aureus, S. epidermidis, S. hominis, E. fecalis, S. sacrophyticus, S. lugdunensis); type: cell-based; conditions: e-test; median (IQR) of pathogens of the 46 patients (36/46 identified); mg/L
Method: Demographic (age, body weight and height), treatment (dose and co-administered medications) and clinical data (microbiological data, analytical and disease covariates) were collected at patient enrolment. Serum creatinine and serum albumin were measured on the day (if not available, the nearest day) of measurement of the drug concentration.

[2] = system: human plasma proteins
Text: (§1) This model assumes that Cbound is directly proportional to Cfree with no saturable mechanism. • Non-linear binding model with single site binding [38, 39]: (2) Ctotal=Cfree+Bmax·Cfree/(KD+Cfree) where Bmax (mg/L) represents the maximal binding capacity and KD (mg/L) is the equilibrium dissociation constant. • Non-linear binding model with multiple site binding [38, 40, 41] (3) Ctotal=Cfree+∑^ Bmax,i·Cfree/(KD,i+Cfree) where Bmax,i and KD,i represent the binding-dissociation parameters of the i th binding site of plasma proteins.

[3] = system: Staphylococcus aureus; conditions: total AUC, MIC equal to 1 mg/L, cited from earlier work
[4] = system: creatine phosphokinase elevation; conditions: in vivo; cited from earlier work
Method: The probability of Cmin ≥24.3 mg/L at 24 h was calculated for each scenario.

[5] = excretion primarily by the kidneys; cited from earlier work
[6] = system: plasma proteins (albumin and α-glycoprotein); conditions: cited from earlier work
[7] = Population pharmacokinetic model of daptomycin in patients with normal and impaired renal function (NONMEM)
Method: A prospective multi-center study in patients admitted to the General University Hospital of Castellón (Castellón, Spain) and the Arnau de Vilanova Hospital of Valencia (Valencia, Spain) was conducted. […] The exclusion criteria were patients with renal replacement therapy.
Five serial blood samples were collected from a peripheral vein from day 4 (steady state) at the pre-dose, 0.5, 1–2, 4–10 h after the infusion ended and before the next dose.
Precision and accuracy were assessed by performing replicate analysis of quality control samples against calibration standards. Intra- and inter-assay coefficients of the variation were always <10%.
All data analyses were performed based on the population approach with the software NONMEM® (Version 7.4; Icon Inc, PA, USA). The population PK parameters were estimated using the Stochastic Approximation of the Expectation Maximization and the Importance Sampling Estimation method. The Perl-Speaks-NONMEM program (version 4.8.1, Department of Pharmaceutical Biosciences, Uppsala University, Sweden) [33] and Pirana software (version 2.9.6, Pirana Software & Consulting BV) were used for model development and evaluation. Data processing and graphical analysis were conducted using R (version 4.0.0, http://cran.r-project.org, accessed on 14 April 2020) and R-Studio (version v2021.09.0+354).
as §1
Inter-individual variability (IIV) associated with the PK model parameters was modeled exponentially, and the residual unexplained variability (RUV) was explored using the additive error model on the logarithmic scale. The significance of the non-diagonal elements of the Ω variance-covariance matrix was evaluated.
Once the base model was selected, a graphical exploration of the correlations between the PK parameters (when eta-shrinkage was less than 35%) [42] and covariates was performed. The continuous covariate included age, height, body weight, serum creatinine, creatinine clearance, and albumin. The categorical covariates were gender and statin co-administration. A numerical evaluation of the parameter-covariate relationship was performed manually in a univariate testing.
The model selection was based on the physiological and pharmacological rationale with the principle of parsimony [43]. A decrease in 3.84 points of the objective function value (OFV) provided by NONMEM® between two nested models differing in one parameter was considered significant at the 5% level, together with the visual inspection of the goodness of fit (GOF) [44] and normalized prediction distribution error (NPDE) plots [45].
A model evaluation [46, 47] was performed through prediction-corrected visual predictive checks (pc-VPC), [48] and a non-parametric bootstrap (n = 1000) was conducted to assess the statistical significance of the final parameter estimates.

[8] = non-parametric bootstrap n = 1000, median
[9] = population estimate, final model, unbound daptomycin, 46 patients

CCCCCCCCCC(=O)N[C@@H](Cc1c[nH]c2ccccc12)C(=O)N[C@H](CC(N)=O)C(=O)N[C@@H](CC(=O)O)C(=O)N[C@@H]1C(=O)NCC(=O)N[C@@H](CCCN)C(=O)N[C@@H](CC(=O)O)C(=O)N[C@H](C)C(=O)N[C@@H](CC(=O)O)C(=O)NCC(=O)N[C@H](CO)C(=O)N[C@@H]([C@H](C)CC(=O)O)C(=O)N[C@@H](CC(=O)c2ccccc2N)C(=O)O[C@@H]1C [daptomycin]
MIC micro-organism [1]: 0.5 (0.25, 0.5)
Bmax (maximal binding capacity) ([2]; in vivo): 160 mg/L
Bmax, bootstrap median ([2]; in vivo): 157 mg/L
KD, bootstrap median [2, 8]: 3.61 mg/L (≈ 2.23 µM)
KD (equilibrium dissociation constant) ([2]; population estimate, single-site non-linear binding model, estimated from total concentrations, no free concentrations measured): 3.56 mg/L (≈ 2.2 µM)
AUC with bactericidal effect ([3]; ref 19): 761 mg·h/L
AUC with bacteriostatic effect ([3]; ref 19): 465 mg·h/L
AUC with bactericidal effect ([3]; ref 24, 51, 52): 666 mg·h/L
trough level (Cmin) associated with a 50% probability of creatine phosphokinase elevation [4]: ≥ 24.3 mg/L
eliminated in urine [5]: 54–78%
free fraction [6]: around 10%
reversibly bound to albumin and α-glycoprotein [6]: 90%
CL, bootstrap median [7, 8]: 7.01 L/h
Q, bootstrap median [7, 8]: 1.93 L/h
V1, bootstrap median [7, 8]: 0.97 L
Q (intercompartmental clearance) [7, 9]: 1.96 L/h
V1 (apparent volume of distribution of the unbound central compartment) [7, 9]: 0.95 L
